What was measured:
[1] = system: adult rats; assay: Intraventricular infusion in normal adult rats, BrdU labeled cells; format: in vivo, rat; conditions: for concentration in the pump at which maximal effects were achieved: constant FGF2 2.5 μg/ml
Protocol: In-vivo Experiments: All drugs were infused over one week using an Alzet osmotic pump (model 2001 delivering at a rate of 1 μl/hr for seven days). Briefly, an intracerebral cannula connected to the pump was inserted into the right lateral ventricle using the following stereotaxic coordinates: bregma AP +0, Lateral −1.5 mm dorso-ventral 3.3 mm. Animals received IP injection of the tracer BrdU (50 mg/kg) every 12 hours for 5 days beginning on day one post-operatively to label dividing cells.
Immuno-positive cells were analyzed by confocal microscopy counted using a non-biased system on slides obtained from homologous coronal slices containing the infarct of each animal at the position between +0.2 and −3.8 mm from the center of the bregma according to stereotaxic coordinates. Cells were enumerated in […] regions of interest, on both the ipsilateral and contralateral hemispheres (to cannula, or cannula and ischemic focus): subventricular zone (SVZ), corpus callosum and white matter and the peri-infarct cortex.
The effect of intraventricular administration of Delta-4 was studied in adult rats. As in other tissues, the numbers of stem cells in the adult CNS are precisely controlled. […] In vivo manipulations were designed to ask if Notch ligands can act alone or substantially alter the effect of FGF2 on the numbers of proliferating cells in the SVZ of the normal brain. Animals (N=5-6 per treatment) were fitted with a mini-osmotic pump administering artificial cerebrospinal fluid (ACSF, vehicle), FGF2, Delta-4, or a combination FGF2+Delta-4 for one week into the ventricles of three-month old rats. Animals were also given twice-daily injections of bromodeoxyuridine (BrdU) from post-op days two to six to label cells generated during this time window. Two groups of animals were analyzed at day 7 and day 45 relative to the initiation of protein delivery. Delta-4 doses were chosen to provide a roughly equal concentration in the rat adult cerebrospinal fluid as in the cell culture medium of our in vitro experiments.

[2] = system: IGF1/insulin receptor; assay: IGF1/insulin receptor phosphorylation in foetal NSC cultures; format: cell-based, mouse
Protocol: Specifically, D114 induced the phosphorylation of IGF1/insulin receptor. Peak phosphorylation occurred at 2-5 minutes.
It was determined that insulin facilitates Notch cleavage using immunocytochemical detection.

[3] = system: Akt; assay: Akt phosphorylation immunoblot in CNS stem cells; format: cell-based, mouse; conditions: for Akt (total) / Akt-pS473 / Akt-pT308: absence of insulin
Protocol: Insulin in the medium is also thought to promote cell survival. […] Seeding cells in the absence of insulin caused the plating efficiency measured at five days to drop to 29.9%±37.9 (FIG. 1e). Delta-4 was able to compensate for the lack of insulin in the medium, and restored plating efficiency (125%±19.4). Because Notch activation improved survival, activation of Akt, a ser/threonine kinase known to be involved in cell survival, was assayed. Notch activation rapidly (5 minutes) promoted the phosphorylation of Akt on Ser473 and […] in both the presence and absence of insulin (FIG. 1f).

[4] = system: rat adult subventricular zone central nervous system stem cell cultures; assay: Survival of adult SVZ CNS stem cell cultures with insulin and Dll4; format: cell-based
Protocol: As there was a tight correlation between the Notch survival pathway and Hes3, it was investigated as to whether Hes3 is a mediator of the Notch pro-survival signalling. It was determined that both insulin and Notch activation promote the survival of foetal and adult neural stem cell cultures and their effects are additive (Tables 8-9).

[5] = system: p38, SMAD1/5/8, MSK-1, STAT3 phosphorylation in hES cells; assay: Signalling immunoblots in hES cells; conditions: absence of MEF, within one hour
Protocol: Immunoblotting: Immunoblotting was performed as previously described (Panchision et al., Genes Dev 15:2094-110, 2001). The following antibodies were used in the experiments described below: pSer473-Akt (92715), pSer308-Akt (9275), pSer2448-mTOR (29715), pThr180/Tyr182-p38 (9211), pSMAD1/5/8 (9511) from Cell Signaling; STAT3 (482), pSer727-STAT3 (8001-R), pTyr705-STAT3 (7993) from Santa Cruz; Sonic Hedgehog (R&D, AF464), nucleostemin (McKay Lab), Hes3 (Chemicon, AB5706), α-tubulin (Sigma, T-6074).
To determine whether in the hES system JAK inhibition reduced p38 activity, cells were treated in the absence of MEF with JAK inhibitor for different times and assayed for p38 phosphorylation.

[6] = system: H9 hES cells; assay: hES colony number formation, H9; format: cell-based, human; conditions: H9 line
Excerpt: The human ES cell lines HSF-6 (University of California, San Francisco; NIH # UC06, Passage 38-120) and H1 and H9 (WiCell Research Institute, NIH # WA01 and […]) were maintained on mouse embryonic fibroblasts (MEF) according to the suppliers' protocols. Immunocytochemistry and FACS analysis for the expression of Oct4 and SSEA4 and SKY karyotyping established that the starting cells are undifferentiated and have a normal set of chromosomes. For single cell survival experiments, hES colonies were harvested after treatment with 1.5 mg/ml collagenase type IV (Invitrogen), separated from the MEF feeder cells by repeated washing by gravity, gently triturated to break up colonies into small aggregates, further dissociated into a single cell solution by trypsination (0.05% trypsin/0.04% EDTA) and transferred on MEF feeder cells at a density of 10000 cells/ml. Oct-4 positive colonies were counted six days after plating. […]
The pro-survival effects of activation of Notch and inhibition of JAK was tested on HSF-6 (NIH code UC06, http://escell.ucsf.edu), H1 (NIH code WA01, www.wicell.org) and H9 (NIH code WA09, www.wicell.org) hES cells. Singly dissociated hES cells were plated on mouse embryo fibroblasts (MEFs), treated daily for one week and colony numbers counted. […]

[7] = Insulin withdrawal, 2 days and then treat for 1 h

Row | pIGF1 (19H7) [2, 7] | pIGF1 (3021) [2, 7] | time of peak phosphorylation of IGF1/insulin receptor ([2]; foetal NSC cultures) | Molecule | number of BrdU+ cells in SVZ, corpus callosum and cerebral cortex ([1]; 45 days, relative to FGF2 treated animals) | concentration in the pump at which maximal effects were achieved ([1]; contralateral site) | number of proliferating cells / BrdU incorporation ([1]; day 7, contralateral site) | number of BrdU labeled cells in SVZ, corpus callosum and cortex ([1]; day 7, hemisphere ipsilateral to the cannula) | concentration in the pump at which maximal effects were achieved ([1]; ipsilateral site) | Akt (total) ([3]; Dll4, 5 min) | Akt-pS473 ([3]; Dll4, 5 min) | Akt-pT308 ([3]; Dll4, 5 min) | Akt (total) ([3]; Dll4, 10 min) | Akt-pS473 ([3]; Dll4, 10 min) | Akt-pT308 ([3]; Dll4, 10 min) | time of peak Akt phosphorylation on Ser473 and Ser308 ([3]; presence and absence of insulin, Western blotting) | Cell # [4] | p38 phosphorylation [5] | colony number formation [6]
1 | Low | Low | 2 to 5 min | Delta-4: soluble Notch ligand Delta-4 (1389-D4) from R&D | increased number of BrdU+ cells | ~4.2 µg/mL | induced significant increases in BrdU incorporation | increased the number of BrdU labeled cells | approximately 0.42 μg/ml | Medium | High | High | Medium | Medium | Medium | 5 min | High | – | –
2 | – | – | – | CC(C)(C)c1nc2c3ccc(F)cc3c3c(=O)[nH]ccc3c2[nH]1 [JAK Inhibitor, 2-(1,1-Dimethylethyl)-9-fluoro-3,6-dihydro-7H-benz[h]-imidaz[4,5-f]isoquinolin-7-one] | – | – | – | – | – | – | – | – | – | – | – | – | – | significantly reduced p38 phosphorylation | 347.6%±59.5

Source: US20080242594A1, “Methods for Promoting Stem Cell Proliferation and Survival” (priority 2005, published 2008)
